The results in this text go back to patent US20200062696A1, “COMPOSITIONS AND METHODS FOR INHIBITING RETICULON 4” (THE REGENTS OF THE UNIVERSITY OF CALIFORNIA, priority 2017, published 2020).

The target of assay [1] is T1, pure human RTN4 protein (Homo sapiens, UniProt Q9NQC3).
T1 construct: purchased Fisher Scientific
T1 sequence (Q9NQC3 1-1192): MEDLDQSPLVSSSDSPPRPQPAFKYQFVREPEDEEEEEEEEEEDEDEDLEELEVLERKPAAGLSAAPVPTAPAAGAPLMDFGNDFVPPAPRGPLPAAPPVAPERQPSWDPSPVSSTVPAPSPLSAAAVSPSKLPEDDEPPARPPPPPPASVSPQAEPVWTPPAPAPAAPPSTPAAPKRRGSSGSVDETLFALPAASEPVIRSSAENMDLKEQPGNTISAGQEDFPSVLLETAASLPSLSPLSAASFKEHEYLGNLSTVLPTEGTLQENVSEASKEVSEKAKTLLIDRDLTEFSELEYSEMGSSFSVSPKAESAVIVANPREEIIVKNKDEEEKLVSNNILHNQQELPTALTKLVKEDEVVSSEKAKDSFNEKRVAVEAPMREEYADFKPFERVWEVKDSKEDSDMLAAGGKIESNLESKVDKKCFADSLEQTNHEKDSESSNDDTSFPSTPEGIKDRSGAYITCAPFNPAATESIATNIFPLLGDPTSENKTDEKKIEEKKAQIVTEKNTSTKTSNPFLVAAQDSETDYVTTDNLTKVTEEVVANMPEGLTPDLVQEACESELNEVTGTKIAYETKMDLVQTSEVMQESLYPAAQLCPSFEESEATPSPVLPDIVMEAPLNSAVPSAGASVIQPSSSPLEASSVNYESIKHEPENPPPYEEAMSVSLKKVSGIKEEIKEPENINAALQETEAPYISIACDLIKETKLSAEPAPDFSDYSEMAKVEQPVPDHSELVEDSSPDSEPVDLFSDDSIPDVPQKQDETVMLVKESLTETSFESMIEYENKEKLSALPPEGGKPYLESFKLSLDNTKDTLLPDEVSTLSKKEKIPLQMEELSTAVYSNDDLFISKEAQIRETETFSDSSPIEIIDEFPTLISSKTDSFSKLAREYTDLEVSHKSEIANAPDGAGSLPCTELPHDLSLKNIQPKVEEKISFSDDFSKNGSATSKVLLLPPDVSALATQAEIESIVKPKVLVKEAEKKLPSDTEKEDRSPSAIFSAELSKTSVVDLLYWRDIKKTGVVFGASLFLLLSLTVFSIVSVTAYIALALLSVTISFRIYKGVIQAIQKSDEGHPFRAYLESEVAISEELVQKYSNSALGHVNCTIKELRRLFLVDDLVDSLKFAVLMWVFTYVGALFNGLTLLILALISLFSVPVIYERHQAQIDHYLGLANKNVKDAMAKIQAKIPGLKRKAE
Put plainly: Gel-based ABPP competition against IAyne labeling of pure human RTN4 protein. To be noted: pure human RTN4 protein, gel-based ABPP. The assay is classed as binding. The procedure: FIGS. 11A-11C. DKM 3-30 and analogs. (FIG. 11A) Structures of DKM 3-30 and analogs. (FIG. 11B) Gel-based ABPP analysis showing competition side-by-side competition studies of DKM 3-30, YP 1-46, and AMR 1-125 against IA-rhodamine labelling of pure human RTN4. Shown are the 50% inhibitory concentration (IC50) values for each compound. (FIG. 11C) Serum-free cell survival of U2OS (48 h) or SW620 (24 h) cells treated with DMSO vehicle or each compound (50 μM). Data in (C) are presented as mean±sem. Significance is expressed as *p<0.001 compared to vehicle-treated controls.
Gel-Based ABPP. Gel-based ABPP methods were performed as previously described^24. Recombinant RTN4 (0.06 μg) protein (RTN4-Fisher Scientific) were pre-treated with DMSO or DKM 3-30, respectively, for 1 h at 37° C. in an incubation volume of 50 μL PBS, and were subsequently treated with IAyne (10 μM final concentration) for 30 min at 37° C. CuAAC was performed to append rhodamine-azide onto IAyne probe-labeled proteins. The samples were separated by SDS/PAGE and scanned using a ChemiDoc MP (Bio-Rad Laboratories, Inc). Inhibition of target labeling was assessed by densitometry using ImageStudio Light software.

Assay [2] relates to SW620 cells expressing GFP-tagged Sec61β. Briefly: ER morphology by fluorescence microscopy in SW620 cells expressing GFP-Sec61β. It is filed as cell-based. To be noted: DKM 3-30 50 μM. The procedure:
FIG. 8. ER Morphology in SW620 Colorectal Cancer Cells. SW620 cells expressing GFP-tagged Sec61β were treated with DKM 3-30 (50 μM) for the indicated times and the ER (light gray/white) and nuclear (dark gray) morphology visualized by fluorescence microscopy.
Fluorescence microscopy. SW620 and U2OS cells were transiently transfected with a plasmid encoding GFP-tagged Sec61β using fuGENE6 (Roche) according to the manufacturer's instructions. Transfected cells plated on poly-L-lysine treated coverslips were treated, washed in PBS, and fixed by incubation in 4% paraformaldehyde in PBS for 10 min. Fixed cells were washed extensively in PBS and nuclei stained by addition of 4′,6-diamidino-2-phenylindole (DAPI) (Thermo Fisher Scientific) for 10 min. Coverslips were mounted using Fluoromount-G (SouthernBiotech) and visualized using a DeltaVision Elite microscope outfitted with a 60× oil immersion objective. Acquired stacks of images of fixed cells were deconvolved and analyzed using SoftWoRx and ImageJ. For time-lapse imaging of live cells, transfected cells were plated on poly-L-lysine treated glass-bottom 4-well imaging chambers (Lab-Tek II; Thermo Fisher Scientific). Imaging was performed using a DeltaVision Elite microscope encased in a chamber that was maintained at 37° C. and was continuously perfused with humidified 5% CO2. Acquired images were analyzed using SoftWoRx and ImageJ.

The subject of assay [3] is SW620 colorectal cancer cells. Put plainly: Cell proliferation of SW620 cells (Hoescht staining). It is filed as cell-based. To be noted: 48 h, vs DMSO, average of n = 3/group.

On to `C=CC(=O)Nc1ccc(Oc2ccc(Cl)cc2)cc1` [DKM 3-30, N-(4-(4-chlorophenoxy)phenyl)acrylamide], for which the “displacement of IAyne labelling of RTN4” value in assay [1] was “validated this hit”. Besides, the “ER morphology in SW620 cells” value in assay [2] is given as “suggest alterations in the ER morphology”. Moreover, in assay [3] (Homo sapiens, SW-620, cysteine-reactive fragment 50 μM, read-out: SW620 proliferation Ave), the activity at 50 µM worked out at 54%. For the same molecule, the “SW620 proliferation Ave” value in assay [3] (cysteine-reactive fragment 50 μM) is “significantly impaired”.
